Experimental data as given in paper PMC4240668 (PLoS ONE, 2014).
“Also recorded” adds a separate entry of the source. Where two headings read alike, the source gives them in different places. No end group written: not given here.

Legend:
[1] = apical medium of differentiated Caco-2 monolayer in transport medium (HBSS with Ca2+, Mg2+ and glucose); conditions: human, 37°C, up to 24 h
[2] = basal medium of differentiated Caco-2 monolayer (peptide added apically) in transport medium (HBSS); conditions: human, 37°C; for fragment found: up to 3 h
[3] = basal medium (HBSS transport medium) of Caco-2 monolayer after apical peptide addition; conditions: human, 37°C, up to 24 h
[4] = apical medium (HBSS transport medium) of differentiated Caco-2 monolayer in transwell; conditions: human, 37°C, up to 24 h
[5] = system: differentiated Caco-2 monolayer; assay: Identification of translocated peptides in basal medium of Caco-2 monolayers by MALDI-TOF-MS; conditions: Caco-2 monolayer incubated apically with 32 µmol/L PF-488 labeled parent peptide, 37°C
Method: (§1) Cells were pre-incubated with transport medium (Hank's Balanced Salt Solution (HBSS) with Ca^2+, Mg^2+ and glucose) (Invitrogen) (200 µl in the apical, 900 µl in the basal compartment of the transwell system) for 30 min at 37°C. Methyl-β-cyclodextrin (MβCD; Sigma-Aldrich, Munich, Germany; 2 mmol/L) was added to the apical compartment to inhibit endocytosis. Then, PF–488 labeled GP dissolved in 100 µl transport medium were added on the apical side of the cells at a total concentration of 32 µmol/L or 145 µmol/L. Cells were incubated at 37°C for 3 or 24 h. Thereafter, media from both compartments (apical and basal) were removed to be further analyzed by fluorescence spectroscopy and MALDI–TOF–MS; cell inserts were prepared for flow cytometry and confocal laser scanning microscopy.
(§2) For mass spectrometric analyses peptides were concentrated and desalted using C18 ZipTips (Millipore). MALDI–TOF–MS analysis of the apical and basal cell culture media was performed using a Bruker Ultraflex I instrument (Bruker Daltonics, Bremen, Germany) with 2,5-dihydroxybenzoic acid (DHB)/methylenbisphosphonic acid as matrix. For calibration an external standard peptide mixture (Bruker Daltonics) was used. MS-spectra were processed by the software FlexAnalysis (version 3.0, Bruker Daltonics). The peptide sequences of P56–68 and P31–43 as well as fragments of these peptides were deduced from the detected molecular mass considering the H^+, Na^+ and K^+ adducts. Masses were assigned to peptides allegeable to cleavage of GP. Detected GP were quantified by calculating the relative area under the curve (AUC). The values of three independent experiments are given as mean values.

[6] = basal medium of differentiated Caco-2 monolayer with MβCD in the apical compartment; conditions: human, 37°C, up to 24 h
[7] = system: immature dendritic cells (iDC); assay: Cytokine secretion (IL-8, TNF-α) by immature dendritic cells, sandwich ELISA; assay type: cell-based; conditions: for Secretion of IL-8 and TNF-α by dendritic cells: iDC from CD14+ PBMCs, 100 µg/mL peptide in RPMI + 2% human serum, 24 h, sandwich ELISA, three experiments (Fig. S1)
Method: Supplementary file pone.0113932.s001.tiff: Figure S1 Effect of P31–43 and P56–68 on cytokine secretion (IL-8, TNF-α) by immature dendritic cells (iDC). iDC were generated from CD14+ PBMCs by a 5-day incubation with 500 U/mL IL-4 and 1000 U/mL GM-CSF in RPMI media with 10% human serum. Then, iDC were incubated with 100 µg/mL P31–43 or P56–68 in RPMI+2% human serum for 24 h. IL-8 (A) and TNF-α (B) secretion in the media were analyzed by a commercially available sandwich ELISA (R&D, Wiesbaden, Germany). Each experiment was performed three times; data are given as mean ± SD; only significant differences are shown as *p<0.05, **p<0.01. (TIFF) Click here for additional data file.
Supplementary file pone.0113932.s002.tiff: Figure S2 Effect of the basal media - after incubation of a Caco-2 monolayer with P31–43 and P56–68 - on cytokine secretion (IL-8, TNF-α) by immature dendritic cells (iDC). iDC were generated from CD14+ PBMCs by 5-day incubation with 500 U/mL IL-4 and 1000 U/mL GM-CSF in RPMI media with 10% human serum. iDC were incubated 24 h with basal media of Caco-2 monolayers after they had been exposed to PF-488 labeled P31–43 and P56–68 on the apical side of the cells. IL-8 (A) and TNF-α (B) secretion in the media was analyzed by sandwich ELISA. Each experiment was performed three times; data are given as mean ± SD. (TIFF) Click here for additional data file.

[8] = system: Caco-2 cells (brush border membrane peptidases APN, CPP, DPP IV); assay: Digestion of gliadin peptides at the apical side of Caco-2 monolayers, MALDI-TOF-MS relative AUC; conditions: PF-488 labeled peptide at apical side of Caco-2 monolayer, HBSS, 37°C, mean of three independent experiments
Method: as §1, §2

[9] = system: Caco-2 cells (brush border membrane peptidases APN, CPP, DPP IV)
Method: as §1, §2

| Peptide detected in basal media after 24 h [5] | Substance | cleaved bond [1] | fragment found [2] | fragment found [4] | Secretion of IL-8 and TNF-α by dendritic cells [7] | other results |
| --- | --- | --- | --- | --- | --- | --- |
|  | PF-LGQQQPFPPQQPY | P-Y, major, 3 h; also recorded: L-G, 3 h; also recorded: G-Q, 3 h; also recorded: P-F, minor, 3 h | PF-LGQQQPFPPQQP, 3 h; also recorded: PF-LGQQQP, 3 h; also recorded: PF-LGQQ, 3 h; also recorded: PF-LGQ, 3 h | QQPFPPQQP, minor |  | cleaved bond [3]: P-Y, 3 h |
| found | LQLQPFPQPQLP [P56–67] |  |  |  |  |  |
|  | PF-LQLQPFPQPQLPY | P-Y, major, 3 h; also recorded: L-Q, minor, 3 h; also recorded: Q-L, minor, 3 h; also recorded: P-F, minor, 3 h | PF-LQ, 3 h | QLQPFPQPQLP, minor, 3 h; also recorded: LQPFPQPQLP, minor, 3 h; also recorded: QPFPQPQLP, minor, 3 h |  | cleaved bond ([2]; up to 24 h): P-Y, major, 24 h; fragment found [6]: PF-LQLQPFPQPQ, 24 h; also recorded: PF-LQLQP, 24 h; also recorded: PF-LQL, 24 h; also recorded: PF-L, 24 h; also recorded: PF-LQLQPFPQPQLP, 24 h |
| detected | LGQQQPFPPQQP [P31–42] |  |  |  |  | Peptide detected in basal media after 3 h ([5]; 3 h): detected |
|  | LGQQQPFPPQQPY [P31–43] |  |  |  | increased secretion | Cytokine production by iDC with basal culture media of peptide-exposed Caco-2 cells ([7]; iDC incubated 24 h with basal media of Caco-2 monolayers exposed apically to PF-488 labeled peptide, ELISA (Fig. S2)): did not significantly increase; Peptide remaining in the apical compartment still intact ([8]; 3 h, MALDI-TOF-MS after C18 ZipTip, relative AUC): 76%; C-terminal tyrosine residue cleaved (presumably by carboxypeptidase P) ([8]; 24 h, MALDI-TOF-MS relative AUC): 83% |
|  | LQLQPFPQPQLPY [P56–68] |  |  |  | no effect | C-terminal tyrosine residue cleaved (presumably by carboxypeptidase P) [9]: 72% |
